Reference: patent publication US7053064B2, “Compounds for the treatment of tobacco dependence and withdrawal” (The McLean Hospital Corporation, priority 2002, dated 2006)
Where two headings read alike, the source gives them in different places.

Legend:
mammals = conditions: cited from earlier work
humans = conditions: cited from earlier work
[1] = cited from earlier work
human subjects = test: effects of citicoline on tobacco use (cigarettes smoked per day) versus placebo; format: in vivo; conditions: compared to placebo, FIG. 1
Excerpt: FIG. 1 is a graph of the effects of citicoline on tobacco use.

[2] = cited from earlier work; remark: listed apart in the source
[3] = major excretion route, % of dose

## CC(=O)OC[C@H]1O[C@@H](n2ccc(=O)[nH]c2=O)[C@H](OC(C)=O)[C@@H]1OC(C)=O [triacetyl uridine]
mammals; in vivo
  tolerability: well tolerated

## O=c1ccn([C@@H]2O[C@H](CO)[C@@H](O)[C@H]2O)c(=O)[nH]1 [uridine]
mammals; mammals
  tolerability: well tolerated
humans
  tolerability: well tolerated

## C[N+](C)(C)CCOP(=O)(O)OP(=O)([O-])OC[C@H]1O[C@@H](n2ccc(N)nc2=O)[C@H](O)[C@@H]1O [CDP-choline, cytidine 5′-diphosphocholine]
[1]; in vivo
  reported cases of overdoses: no reported cases of overdoses
[1]; preclinical studies, salivation, lacrimation, urination, defecation, vomiting
  toxicity symptoms on ingestion of large amounts: common cholinergic symptoms
Human subjects
  usage of tobacco (number of cigarettes smoked per day): reduces the usage of tobacco
mammals; mammals
  tolerability: well tolerated
[2]; % of dose
  rest of the dose metabolized and retained in tissues: 83.9%
[2]; administered either orally or intravenously
  conversion into circulating metabolites: rapidly converted into the two major circulating metabolites, choline and cytidine
[2]; [3]
  excretion via lung: 12.9%
  excretion via urine: 2.4%
[2]; orally administered
  CDP-choline and/or its metabolites absorbed: more than 99%
  excreted in feces: less than 1%

## CN(CC(=O)O)C(=N)N [Creatine, creatine]
humans
  tolerability: well tolerated at relatively high doses
